In patent US7572799B2, “Pyrazolo[4,3-d]pyrimidines as Phosphodiesterase Inhibitors” (Pfizer Inc, priority 2003, dated 2009):
pIC50: −log10 of the molar value.

These molecules were tested against PDE-5 (UniProt O76074) (assay: In vitro PDE inhibitory activity against PDE5 (batch method or scintillation proximity assay)). Conditions: representative compounds, read-out: IC50.
Format: biochemical, human
Description: The compounds of the invention are inhibitors of cyclic guanylate monophosphate (cGMP)-specific phosphodiesterase type 5 (PDE-5 inhibitors).
The required PDE enzymes can be isolated from a variety of sources, including human corpus cavernosum, human and rabbit platelets, human cardiac ventricle, human skeletal muscle and bovine retina, essentially by a modification of the method of Thompson, W J et al.; Biochemistry 18(23), 5228-5237, 1979, as described by Ballard S A et al.; J. Urology 159(6), 2164-2171, 1998. In particular, cGMP-specific PDE5 and cGMP-inhibited cAMP PDE3 can be obtained from human corpus cavernosum tissue, human platelets or rabbit platelets; cGMP-stimulated PDE2 was obtained from human corpus cavernosum; calcium/calmodulin (Ca/CAM)-dependent PDE1 from human cardiac ventricle; cAMP-specific PDE4 from human skeletal muscle; and photoreceptor PDE6 from bovine retina. Phosphodiesterases 7-11 can be generated from full length human recombinant clones transfected into SF9 cells.
Assays can be performed either using a modification of the “batch”method of Thompson W J and Appleman M M; Biochemistry 10(2), 311-316, 1971, essentially as described by Ballard S A et al.; J. Urology 159(6), 2164-2171, 1998, or using a scintillation proximity assay for the direct detection of [^3H]-labelled AMP/GMP using a modification of the protocol described by Amersham plc under product code TRKQ7090/7100. In summary, for the scintillation proximity assay the effect of PDE inhibitors was investigated by assaying a fixed amount of enzyme in the presence of varying inhibitor concentrations and low substrate, (cGMP or cAMP in a 3:1 ratio unlabelled to [^3H]-labeled at a concentration of ˜⅓ Km, or less) such that IC50≅Ki. The final assay volume was made up to 100 μl with assay buffer [20 mM Tris-HCl pH 7.4, 5 mM MgCl2, 1 mg/ml bovine serum albumin]. Reactions were initiated with enzyme, incubated for 30-60 min at 30° C. to give <30% substrate turnover and terminated with 50 μl yttrium silicate SPA beads (containing 3 mM of the respective unlabelled cyclic nucleotide for PDEs 9 and 11).

| SMILES | pIC50 |
| --- | --- |
| CCOCCn1nc(C(=O)O)c2nc(N3CCCC3)nc(Nc3cc(C)ccn3)c21 [Example 134, 1-(2-Ethoxyethyl)-7-[(4-methylpyridin-2-yl)amino]-5-pyrrolidin-1-yl-1H-pyrazolo[4,3-d]pyrimidine-3-carboxylic acid] | 8.30 |
| CO[C@@H](C)Cn1nc(C(=O)O)c2nc(N(C)C(C)C)nc(Nc3cc(C)ccn3)c21 [Example 135, 5-[Isopropyl(methyl)amino]-1-[(2S)-2-methoxypropyl]-7-[(4-methylpyridin-2-yl)amino]-1H-pyrazolo[4,3-d]pyrimidine-3-carboxylic acid] | 8.11 |
| CCN(C)c1nc(Nc2ccc(F)c(C)c2)c2c(n1)c(C(=O)O)nn2CCOCC(F)(F)F [Example 137] | 10.17 |
| Cc1cccc(Nc2nc(N(C)C(C)C)nc3c(C(=O)O)nn(CCOCC(F)(F)F)c23)c1 [Example 138] | 10.19 |
| Cc1cc(Nc2nc(N(C)C(C)C)nc3c(C(=O)O)nn(CCOCC(F)(F)F)c23)ccc1F [Example 139] | 10.15 |
| CCN(CC)c1nc(Nc2ccc(F)c(C)c2)c2c(n1)c(C(=O)O)nn2CCOCC(F)(F)F [Example 140] | 10.00 |
| CCOCCn1nc(C(=O)OCCN(C)C)c2nc(N(C)C(C)C)nc(Nc3cc(C)ccn3)c21 [Example 147, 2-(Dimethylamino)ethyl 1-(2-ethoxyethyl)-5-[isopropyl(methyl)amino]-7-[(4-methylpyridin-2-yl)amino]-1H-pyrazolo[4,3-d]pyrimidine-3-carboxylate] | 9.85 |
| CCOCCn1nc(C(=O)NS(C)(=O)=O)c2nc(N(C)CC)nc(Nc3cccc(C)n3)c21 [Example 149] | 7.84 |
| CCOCCn1nc(C(=O)NS(C)(=O)=O)c2nc(N(C)CC)nc(Nc3cc(CO)ccn3)c21 [Example 153] | 9.40 |
| CCOCCn1nc(C(=O)NS(C)(=O)=O)c2nc(N(C)CC)nc(Nc3cc(C)ncn3)c21 [Example 157] | 9.11 |
| CCN(C)c1nc(Nc2cc(C)ccn2)c2c(n1)c(C(=O)NS(C)(=O)=O)nn2CCOC [Example 162] | 8.51 |
| CCCOCCn1nc(C(=O)NS(C)(=O)=O)c2nc(N(C)CC)nc(Nc3cc(C)ccn3)c21 [Example 171] | 8.92 |
| CCN(C)c1nc(Nc2cc(C)ccn2)c2c(n1)c(C(=O)NS(C)(=O)=O)nn2CCOCCCF [Example 175] | 9.24 |
| Cc1ccnc(Nc2nc(N(C)C(C)C)nc3c(C(=O)NS(C)(=O)=O)nn(CCOCCCF)c23)c1 [Example 176] | 9.77 |
| CCN(CC)c1nc(Nc2cc(C)ccn2)c2c(n1)c(C(=O)NS(C)(=O)=O)nn2CCOCCCF [Example 177] | 9.77 |
| CCN(C)c1nc(Nc2cc(C)ccn2)c2c(n1)c(C(=O)NS(C)(=O)=O)nn2CCOCC(F)(F)F [Example 178, 5-[Ethyl(methyl)amino]-7-[(4-methylpyridin-2-yl)amino]-N-(methylsulfonyl)-1-[2-(2,2,2-trifluoroethoxy)ethyl]-1H-pyrazolo[4,3-]pyrimidine-3-carboxamide] | 8.66 |
| Cc1ccnc(Nc2nc(N(C)C(C)C)nc3c(C(=O)NS(C)(=O)=O)nn(CCOCC(F)(F)F)c23)c1 [Example 179, 5-[Isopropyl(methyl)amino]-7-[(4-methylpyridin-2-yl)amino]-N-(methylsulfonyl)-1-[2-(2,2,2-trifluoroethoxy)ethyl]-1H-pyrazolo[4,3-d]pyrimidine-3-carboxamide] | 9.04 |
| Cc1ccnc(Nc2nc(N(C)C(C)C)nc3c(C(=O)NS(C)(=O)=O)nn(CCOCC(F)F)c23)c1 [Example 181] | 8.89 |
| CCN(CC)c1nc(Nc2cc(C)ccn2)c2c(n1)c(C(=O)NS(C)(=O)=O)nn2CCOCC(F)F [Example 182] | 8.85 |
| CCCOCCn1nc(C(=O)NS(C)(=O)=O)c2nc(N(CC)CC)nc(Nc3cc(C)ccn3)c21 [Example 183, 5-(Diethylamino)-7-[(4-methylpyridin-2-yl)amino]-N-(methylsulfonyl)-1-(2-propoxyethyl)-1H-pyrazolo[4,3-d]pyrimidine-3-carboxamide] | 9.42 |
| CCCOCCn1nc(C(=O)NS(C)(=O)=O)c2nc(N(C)C(C)C)nc(Nc3cc(C)ccn3)c21 [Example 184, 5-[Isopropyl(methyl)amino]-7-[(4-methylpyridin-2-yl)amino]-N-(methylsulfonyl)-1-(2-propoxyethyl)-1H-pyrazolo[4,3-d]pyrimidine-3-carboxamide] | 9.30 |
| CCN(C)c1nc(Nc2cc(C)ccn2)c2c(n1)c(C(=O)NS(C)(=O)=O)nn2CCO [Example 185, 5-[Ethyl(methyl)amino]-1-(2-hydroxyethyl)-7-[(4-methylpyridin-2-yl)amino]-N-(methylsulfonyl)-1H-pyrazolo[4,3-d]pyrimidine-3-carboxamide] | 7.94 |
